Measurements from patent EP2801573A1, “Hydantoine derivatives as CD38 inhibitors” (SANOFI, priority 2013, dated 2014).
Where a name gives a salt, the structure may show the parent alone.

Molecular target: T1, human recombinant CD38 enzyme (Homo sapiens, UniProt P28907)
T1 construct: purchased R&D Systems H7006
T1 sequence (P28907 1-300): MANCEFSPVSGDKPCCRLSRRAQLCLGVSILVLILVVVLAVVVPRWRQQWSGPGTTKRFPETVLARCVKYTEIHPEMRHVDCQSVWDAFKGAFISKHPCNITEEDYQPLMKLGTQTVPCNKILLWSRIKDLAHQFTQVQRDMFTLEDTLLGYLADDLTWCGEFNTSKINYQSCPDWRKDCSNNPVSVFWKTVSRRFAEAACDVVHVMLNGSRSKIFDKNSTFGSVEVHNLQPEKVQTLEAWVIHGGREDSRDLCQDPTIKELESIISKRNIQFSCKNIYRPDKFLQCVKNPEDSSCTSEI
Experiment: Human recombinant enzyme assay (fluorimetric CD38 enzyme assay, ε-NAD substrate)
Type: biochemical
Conditions: recombinant CD38 100 ng/ml, ε-NAD 100 µM, pH = 6.0, 37°C, reaction time 30 min; read-out: IC50 (nM) ENAD
Protocol: Enzyme assay on human recombinant CD38 enzyme were performed in order to determine the in vitro potency of the newly synthesized compounds. IC50 values were determined for the test compounds and used to explore the structure-activity relationships (SAR).
N6-etheno-NAD (ε-NAD), a NAD analogue previously shown to be a convenient substrate of CD38 enzyme activity (Graeff et al. J. Biol. Chem. 269, pp 30260-30367, […]) was used to measure the activity of human recombinant CD38 and cell surface enzyme activity.
A fluorimetric CD38 enzyme assay was performed as described by Graeff et al. The reaction was started with 10 µl of N6-etheno-NAD (ε-NAD) substrate, final concentration 100 µM, in a final volume of 0.1 ml buffered with 50 mM HEPES, 0.05% BRIJ, pH = 6.0 containing 100 ng/ml recombinant CD38 (R&D Systems, H7006). Cleavage of ε-NAD, which causes a 10-fold fluorescence enhancement, was continuously followed at 37°C in a BMG Polarstar spectrofluorometer at an emission wavelength of 410 nm and an excitation of 300 nm, reaction time was 30 min. NADase activity was expressed as Δ relative fluorescence/min. The rate of enzyme reactions were compared in the presence and absence of inhibitor molecule, the IC50 values were calculated with Biostat Speed program.

Row | SMILES | IC50 [nM]
1 | O=C1N/C(=C\c2ccncc2)C(=O)N1c1ccccc1 [Compound 1, 3-Phenyl-5-[1-pyridin-4-yl-meth-(Z)-ylidene]-imidazolidine-2,4-dione.HCl salt] | 30
2 | Cc1cccc(N2C(=O)N/C(=C\c3ccncc3)C2=O)c1 [Compound 3, 5-[1-Pyridin-4-yl-meth-(Z)-ylidene]-3-m-tolyl-imidazolidine-2,4-dione] | 50
3 | CCc1ccc(N2C(=O)N/C(=C\c3ccncc3)C2=O)cc1 [Compound 4, 3-(4-Ethyl-phenyl)-5-[1-pyridin-4-yl-meth-(Z)-ylidene]-imidazolidine-2,4-dione] | 60
4 | O=C1N/C(=C\c2ccncc2)C(=O)N1c1cccc(Cl)c1 [Compound 5, 3-(3-Chloro-phenyl)-5-[1-pyridin-4-yl-meth-(Z)-ylidene]-imidazolidine-2,4-dione HCl-salt] | 50
5 | O=C1N/C(=C\c2ccncc2)C(=O)N1c1ccc(Cl)c(Cl)c1 [Compound 6, 3-(3,4-Dichloro-phenyl)-5-[1-pyridin-4-yl-meth-(Z)-ylidene]-imidazolidine-2,4-dione] | 50
6 | O=C1N/C(=C\c2ccncc2)C(=O)N1Cc1ccccc1 [Compound 7, 3-Benzyl-5-[1-pyridin-4-yl-meth-(Z)-ylidene]-imidazolidine-2,4-dione] | 50
7 | CSc1ccc(N2C(=O)N/C(=C\c3ccncc3)C2=O)cc1 [Compound 8, 3-(4-Methylsulfanyl-phenyl)-5-[1-pyridin-4-yl-meth-(Z)-ylidene]-imidazolidine-2,4-dione] | 70
8 | O=C1N/C(=C\c2ccncc2)C(=O)N1C1CCCCC1 [Compound 9, 3-Cyclohexyl-5-[1-pyridin-4-yl-meth-(Z)-ylidene]-imidazolidine-2,4-dione] | 292
9 | O=C1N/C(=C\c2ccncc2)C(=O)N1c1ccc(F)c(F)c1 [Compound 10, 3-(3,4-Difluoro-phenyl)-5-[1-pyridin-4-yl-meth-(Z)-ylidene]-imidazolidine-2,4-dione] | 30
10 | N#Cc1ccc(N2C(=O)N/C(=C\c3ccncc3)C2=O)cc1 [Compound 11, 4-{2,5-Dioxo-4-[1-pyridin-4-yl-meth-(Z)-ylidene]-imidazolidin-1-yl} -benzonitrile] | 30
11 | O=C1N/C(=C\c2ccncc2)C(=O)N1c1ccc(F)cc1 [Compound 12, 3-(4-Fluoro-phenyl)-5-[1-pyridin-4-yl-meth-(2)-ylidene]-imidazolidine-2,4-dione] | 16
12 | CC(=O)c1cccc(N2C(=O)N/C(=C\c3ccncc3)C2=O)c1 [Compound 13, 3-(3-Acetyl-phenyl)-5-[1-pyridin-4-yl-meth-(Z)-ylidene]-imidazolidine-2,4-dione] | 30
13 | CN(C)c1ccc(N2C(=O)N/C(=C\c3ccncc3)C2=O)cc1 [Compound 14, 3-(4-Dimethylamino-phenyl)-5-[1-pyridin-4-yl-meth-(Z)-ylidene]-imidazolidine-2,4-dione] | 90
14 | O=C(O)c1ccc(N2C(=O)N/C(=C\c3ccncc3)C2=O)cc1 [Compound 15, 4-{2,5-Dioxo-4-[1-pyridin-4-yl-meth-(Z)-ylidene]-imidazolidin-l-yl}-benzoic acid] | 110
15 | O=C1N/C(=C\c2ccncc2)C(=O)N1c1cccc(C(F)(F)F)c1 [Compound 16, 5-[1-Pyridin-4-yl-meth-(Z)-ylidene]-3-(3-triftuoromethyl-phenyl)-imidazolidine-2,4-dione] | 77
16 | COc1ccc(N2C(=O)N/C(=C\c3ccncc3)C2=O)cc1 [Compound 17, 3-(4-Methoxy-phenyl)-5-[1-pyridin-4-yl-meth-(Z)-ylidene]-imidazolidine-2,4-dione] | 55

Row | SMILES | IC50 [nM]
17 | O=C1N/C(=C\c2ccncc2)C(=O)N1CCc1ccccc1 [Compound 18, 3-Phenethyl-5-[1-pyridin-4-yl-meth-(Z)-ylidene]-imidazolidine-2,4-dione] | 60
18 | Cc1ccc(N2C(=O)N/C(=C\c3ccncc3)C2=O)cc1 [Compound 19, 5-[1-Pyndin-4-yl-meth-(Z)-ylidene]-3-p-totyl-imidazolidine-2,4-dione] | 30
19 | O=C1N/C(=C\c2ccncc2)C(=O)N1c1ccc(Br)cc1 [Compound 20, 3-(4-Bromo-phenyl)-5-[1-pyridin-4-yl-meth-(Z)-ylidene]-imidazolidine-2,4-dione] | 20
20 | CC(C)N1C(=O)N/C(=C\c2ccncc2)C1=O [Compound 21, 3-Isopropyl-5-[1-pyridin-4-yl-meth-(Z)-ylidene]-imidazolidine-2,4-dione] | 40
21 | CCCCCCN1C(=O)N/C(=C\c2ccncc2)C1=O [Compound 22, 3-Hexyl-5-[1-pyridin-4-yl-meth-(Z)-ylidene]-imidazotidine-2,4-dione] | 55
22 | CC(=O)c1ccc(N2C(=O)N/C(=C\c3ccncc3)C2=O)cc1 [Compound 23, 3-(4-Acetyl-phenyl)-5-[1-pyridin-4-yl-meth-(Z)-ylidene]-imidazolidine-2,4-dione] | 26
23 | C[S+]([O-])c1ccc(N2C(=O)N/C(=C\c3ccncc3)C2=O)cc1 (stereo not shown) [Compound 25, 3-(4-Methanesulfinyl-phenyl)-5-[1-pyridin-4-yl-meth-(Z)-ylidene]-imidazolidine-2,4-dione] | 60
24 | CS(=O)(=O)c1ccc(N2C(=O)N/C(=C\c3ccncc3)C2=O)cc1 [Compound 26, 3-(4-Methanesulfonyl-phenyl)-5-[1-pyridin-4-yl-meth-(Z)-ylidene]-imidazolidine-2,4-dione] | 22
25 | O=C(O)c1cccc(N2C(=O)N/C(=C\c3ccncc3)C2=O)c1 [Compound 27, 3-{2,5-Dioxo-4-[1-pyridin-4-yl-meth-(Z)-ylidene]-imidazolidin-1-yl}-benzoic acid] | 56
26 | O=C(c1ccc(N2C(=O)N/C(=C\c3ccncc3)C2=O)cc1)N1CCOCC1 [Compound 29, 3-[4-(Morpholine-4-carbonyl)-phenyl]-5-[1-pyridin-4-yl-meth-(Z)-ylidene]-imidazolidine-2,4-dione] | 51
27 | O=C1N/C(=C\c2ccncc2)C(=O)N1c1ccc(OC(F)(F)F)cc1 [Compound 30, 5-[1-Pyridin-4-yl-meth-(Z)-ylidene]-3-(4-trifluoromethoxy-phenyl)-imidazolidine-2,4-dione] | 28
28 | O=C1N/C(=C\c2ccncc2)C(=O)N1c1ccc(C(F)(F)F)cc1 [Compound 31, 5-[1-Pyridin-4-yl-meth-(Z)-ylidene]-3-(4-trifluoromethyl-phenyl)-imidazolidine-2,4-dione] | 43
29 | O=C(O)Cc1ccc(N2C(=O)N/C(=C\c3ccncc3)C2=O)cc1 [Compound 32, (4-{2,5-Dioxo-4-[1-pyndin-4-yl-meth-(Z)-ylidene]-imidazolidin-1-yl}-phenyl)-acetic acid] | 38
30 | O=C(NCCN1CCOCC1)c1cccc(N2C(=O)N/C(=C\c3ccncc3)C2=O)c1 [Compound 34, 3-{2,5-Dioxo-4-[1-pyridin-4-yl-meth-(Z)-ylidene]-imidazolidin-1-yl}-N-(2-morpholin-4-yl-ethyl)-benzamide] | 65
31 | CC(C)(C)c1ccc(N2C(=O)N/C(=C\c3ccncc3)C2=O)cc1 [Compound 35, 3-(4-tert-Butyl-phenyl)-5-[1-pyridin-4-yl-meth-(Z)-ylidene]-imidazolidine-2,4-dione] | 100
